≈ marks a conversion by molar mass, not a printed value. Counter-ions that a name gives are not always drawn. Like-named read-outs stand apart in the source and are kept apart here.

Data set [1] concerns Phenion®FT Skin Models (keratinocytes and fibroblasts).
A short description of data set [2]: Solubility in vehicle and precipitation on the skin. Conditions: for Doses with precipitation on the tissue surface: visual inspection, at cell harvest; for Top dose limited by solubility in acetone: acetone vehicle. The class given is physicochemical.
The next data set concerns rats and mice. Conditions: rodent studies; topical for sodium xylene sulfonate; ref [65], [72], [82], [85]; cited from earlier work.
Data set [3] concerns bone marrow, blood, liver, skin. Conditions: cited from earlier work.

On to `Cc1ccc(N)cc1N` [2,4-DAT, 2,4-diaminotoluene], for which, in data set [1], the “Effect on % tail DNA / DNA migration in standard experiment” value was “did not increase the % tail DNA of either cell type” and the “RS Comet assay overall classification” value was “negative”. For the same molecule, in the data set on Phenion®FT Skin Models (human), the “Dose producing signs of strong cytotoxicity that limited the top dose” value is 1280 µg/cm^2 and the “Dose(s) exceeding the cytotoxicity limit in main or APC experiments” value (shortened to “Dose(s) exceeding the cytotoxicity limit”) worked out at 1200 µg/cm^2.

Take `Cc1c(N)cccc1N` [2,6-DAT, 2,6-diaminotoluene]: in data set [1], the “Effect on % tail DNA / DNA migration in standard experiment” value is on record as “did not increase the DNA migration” and the “RS Comet assay overall classification” value was “negative”. Also, in the data set with Phenion®FT Skin Models (human), the “Dose producing signs of strong cytotoxicity that limited the top dose” value is recorded as 800 µg/cm^2 and the “Dose(s) exceeding the cytotoxicity limit” value was at least 160 µg/cm^2.

Take `CC(=O)Nc1ccc2c(c1)Cc1ccccc1-2` [2-AAF, 2-acetylaminofluorene]: in data set [1], the “Cell type(s) with increased DNA migration” value was “increased in both cell types”, the “Dependence of the result on APC” value was “detected in the presence of APC only”, the “Effect on % tail DNA / DNA migration in APC experiment” value was “significant increase in DNA migration at all doses tested” and the “Effect on % tail DNA / DNA migration in standard experiment” value is recorded as “no increase in DNA migration was observed”. The “RS Comet assay overall classification” value in data set [1] is “positive”. Besides, the “Dose(s) with statistically significant increase in % tail DNA, keratinocytes” value in data set [1] (human) is given as 80 µg/cm^2. The “Doses with precipitation on the tissue surface” value in data set [2] is recorded as at least 128 µg/cm^2. The “Dose(s) exceeding the cytotoxicity limit” value in the data set with Phenion®FT Skin Models (human) is 80 µg/cm^2.

Turning to `O=[N+]([O-])c1ccc(O)cc1` [4-Nitrophenol], in data set [1], the “Effect on % tail DNA / DNA migration in standard experiment” value is listed as “statistically significant increase in % tail DNA was observed in keratinocytes only at the two lowest doses” and the “RS Comet assay overall classification” value is on record as “negative”. In the data set with Phenion®FT Skin Models (human), the “Dose producing signs of strong cytotoxicity that limited the top dose” value was determined as 48 µg/cm^2 and the “Dose tested without cytotoxicity exceeding the cut-off” value is 32 µg/cm^2.

For the molecule `C[C@@]1(CO)[C@H](O)CC[C@@]2(C)[C@H]1CC[C@H]1C[C@@H]3C[C@@]12CC[C@]3(O)CO` [APC, aphidicolin], the “Effect on background DNA damage (SC + APC vs SC)” value in data set [1] is recorded as “no major impact on the background DNA damage”.

Consider `Cc1cn([C@H]2C[C@H](N=[N+]=[N-])[C@@H](CO)O2)c(=O)[nH]c1=O` [AZT, Azidothymidine], for which, in data set [1], the “Cell type(s) with increased DNA migration” value is reported as “increased in both cell types”; the “Effect on % tail DNA / DNA migration in standard experiment” value is “strong dose-dependent increase in % tail DNA in keratinocytes and fibroblasts”; the “RS Comet assay overall classification” value is listed as “positive”. Besides, the “Dose producing signs of strong cytotoxicity that limited the top dose” value in the data set on Phenion®FT Skin Models (human) was 700 µg/cm^2.

Consider `Nc1nc[nH]n1` [Amitrole], for which, in data set [1], the “Effect on % tail DNA / DNA migration in APC experiment” value is “small but statistically significant increase in DNA migration was observed at several doses”, the “Effect on % tail DNA / DNA migration in standard experiment” value is listed as “no observed cytotoxicity outside the cut-off limits or increases in DNA damage” and the “RS Comet assay overall classification” value was “negative”. Further, the “Dose tested without cytotoxicity exceeding the cut-off” value with Phenion®FT Skin Models (human) is 1600 µg/cm^2.

With `CC1(C)S[C@@H]2[C@H](NC(=O)[C@H](N)c3ccccc3)C(=O)N2[C@H]1C(=O)O` [Ampicillin sodium salt], in data set [1], the “Effect on % tail DNA / DNA migration in standard experiment” value is reported as “small but statistically significant increase in DNA migration was seen in fibroblasts only at the high dose” and the “RS Comet assay overall classification” value is “negative”.

For the molecule `c1ccc2c(c1)cc1ccc3cccc4ccc2c1c34` [BaP, benzo[a]pyrene], the solubility (commonly the concentration that dissolves in the medium under given conditions) in data set [2] (acetone) is 10 mg/mL (≈ 39.6 mM). Besides, the “Top dose limited by solubility in acetone” value (“Top dose limited” below) in data set [2] was determined as 160 µg/cm^2. In addition, in the data set on Phenion®FT Skin Models (human), the “Dose tested without cytotoxicity exceeding the cut-off” value worked out at 160 µg/cm^2.

Consider `O=P1(N(CCCl)CCCl)NCCCO1` (stereo not shown) [CP, Cyclophosphamide], for which, in data set [1], the “Cell type(s) with increased DNA migration” value is “increased in both cell types”, the “Effect on % tail DNA / DNA migration in standard experiment” value is “dose-dependent increase in % tail DNA in both cell types” and the “RS Comet assay overall classification” value is given as “positive”. Moreover, in the data set with Phenion®FT Skin Models (human), the “Dose producing signs of strong cytotoxicity that limited the top dose” value came to 1200 µg/cm^2.

For the molecule `C1=Cc2cc3cccc4ccc5ccc1c2c5c43` [CPPE, Cyclopenta[c,d]pyrene], in data set [1], the “Cell type(s) with increased DNA migration” value is given as “keratinocytes only”, the “Dependence of the result on APC” value was “detected in the presence of APC only”, the “Effect on % tail DNA / DNA migration in APC experiment” value is on record as “significant increase in % tail DNA was observed in the absence of limiting cytotoxicity at four of the top five doses tested in the keratinocytes” and the “Effect on % tail DNA / DNA migration in standard experiment” value is “DNA migration was not increased in either cell type”. Besides, the “RS Comet assay overall classification” value in data set [1] is “positive”. Also, the “Dose producing signs of strong cytotoxicity that limited the top dose” value with Phenion®FT Skin Models is 75 µg/cm^2.

As for `COc1cc(/C=C/C(=O)CC(=O)/C=C/c2ccc(O)c(OC)c2)ccc1O` [Curcumin], in data set [1], the “Effect on % tail DNA / DNA migration in APC experiment” value was “did not increase DNA migration in either experiment”, the “Effect on % tail DNA / DNA migration in standard experiment” value is “marked increase in DNA damage” and the “RS Comet assay overall classification” value was “negative”. Moreover, the “Doses with precipitation on the tissue surface” value in data set [2] is “precipitation was present at all the tested doses”. For the same molecule, in the data set on Phenion®FT Skin Models (human), the “Dose producing signs of strong cytotoxicity that limited the top dose” value stood at 50 µg/cm^2 and the “Dose(s) exceeding the cytotoxicity limit” value stood at 50 µg/cm^2.

Turning to `O=C1CCCCC1` [Cyclohexanone], the “Dependence of the result on APC” value in data set [1] was “positive or equivocal results in the presence of APC only”.

In the case of `OC[C@@H](O)[C@@H](O)[C@H](O)[C@H](O)CO` [D-Mannitol, D-mannitol], in data set [1], the “Effect on % tail DNA / DNA migration in APC experiment” value is listed as “did not significantly increase DNA migration”, the “Effect on % tail DNA / DNA migration in standard experiment” value was “no increase in DNA migration was observed at any dose” and the “RS Comet assay overall classification” value is recorded as “negative”. Moreover, the “Top dose limited” value in data set [2] came out at 320 µg/cm^2.

Regarding `Cc1c2ccccc2c(C)c2c1ccc1ccccc12` [DMBA, 7,12-dimethylbenz[a]anthracene], in data set [1], the “Dependence of the result on APC” value was “detected in the presence of APC only”.

Take `CN(C)N=O` [DMNA, dimethylnitrosamine]: the “RS Comet assay overall classification” value in data set [1] was “negative”.

As to `CCOS(C)(=O)=O` [EMS, Ethyl methanesulfonate], in data set [1], the “Cell type(s) with increased DNA migration” value is “increased in both cell types”; the “Effect on % tail DNA / DNA migration in standard experiment” value was “clear and dose-dependent increase in % tail DNA in both cell types”; the “RS Comet assay overall classification” value is listed as “positive”. Further, the “Dose producing signs of strong cytotoxicity that limited the top dose” value in the data set with Phenion®FT Skin Models (human) was found to be 200 µg/cm^2.

On to `CCc1cc(C(N)=S)ccn1` [Ethionamide], for which, in data set [1], the “Effect on % tail DNA / DNA migration in APC experiment” value is recorded as “no significant increases in % tail DNA or cytotoxicity were observed”, the “Effect on % tail DNA / DNA migration in standard experiment” value was “failed to increase % tail DNA”, the “Expert call of the performing laboratory in the coded phase” value is listed as “equivocal” and the “RS Comet assay overall classification” value is “negative”. The “Dose(s) with statistically significant increase in DNA migration, fibroblasts” value in data set [1] (human) is recorded as 320 µg/cm^2. In addition, the “Top dose limited” value in data set [2] was 320 µg/cm^2. In addition, in the data set on Phenion®FT Skin Models (human), the “Dose tested without cytotoxicity exceeding the cut-off” value is 240 µg/cm^2 and the “Dose(s) exceeding the cytotoxicity limit” value is recorded as 320 µg/cm^2.

For `COc1cc([C@@H]2c3cc4c(cc3[C@@H](O[C@@H]3O[C@@H]5CO[C@@H](C)O[C@H]5[C@H](O)[C@H]3O)[C@H]3COC(=O)[C@H]23)OCO4)cc(OC)c1O` [Etoposide], the “Dose producing signs of strong cytotoxicity that limited the top dose” value in the data set on Phenion®FT Skin Models (human) is on record as above 120 µg/cm^2.

Turning to `COS(C)(=O)=O` [MMS, methyl methane sulfonate], in data set [1], the “Positive control response in standard experiments” value was “clear induction of DNA migration”.

On to `NC(=S)N(C1CCCCC1)C1CCCCC1` [N,N-dicyclohexyl thiourea], for which the Carcinogenicity entry in the data set with rats and mice is “not carcinogenic”. In addition, in data set [1], the “Effect on % tail DNA / DNA migration in APC experiment” value was “did not cause any significant increases in % tail DNA”, the “Effect on % tail DNA / DNA migration in standard experiment” value is given as “did not induce an increase in % tail DNA in either cell type” and the “RS Comet assay overall classification” value is “negative”. Also, in the data set on Phenion®FT Skin Models, the “Dose producing signs of strong cytotoxicity that limited the top dose” value came to 200 µg/cm^2 and the “Dose(s) exceeding the cytotoxicity limit” value is listed as at least 160 µg/cm^2.

Consider `CCCCCl` [N-butyl chloride], for which, in data set [1], the “Dose with statistically significant increase in DNA migration, keratinocytes” value was determined as 400 µg/cm^2; the “Effect on % tail DNA / DNA migration in APC experiment” value is “did not show any significant increases in DNA migration”; the “RS Comet assay overall classification” value was “negative”. Moreover, the “Dose tested without cytotoxicity exceeding the cut-off” value in the data set with Phenion®FT Skin Models worked out at 1600 µg/cm^2.

`Oc1cccc(O)c1` [Resorcinol, 1,3-Dihydroxybenzene]: the “Dose producing signs of strong cytotoxicity that limited the top dose” value in the data set on Phenion®FT Skin Models (human) is given as 250 µg/cm^2. Also, in data set [3], the “In vivo micronucleus test in mice” value was “positive” and the “In vivo micronucleus test in rats” value is “no effects”.

For `CC(C)(C)c1cc(O)ccc1O` [TBHQ, Tert-butylhydroquinone], in data set [1], the “Effect on % tail DNA / DNA migration in APC experiment” value is “small but statistically significant increase in DNA migration at the two highest doses in fibroblasts only”, the “Effect on % tail DNA / DNA migration in standard experiment” value was “Moderate increases in % tail DNA were observed in this experiment but only at the two highest doses that both exceeded the cytotoxicity limit”, the “Expert call of the performing laboratory in the coded phase” value is recorded as “equivocal” and the “RS Comet assay overall classification” value is on record as “negative”. Moreover, the “Dose(s) with statistically significant increase in DNA migration, fibroblasts” value in data set [1] (human) is given as 16 µg/cm^2. Further, in the data set with Phenion®FT Skin Models (human), the “Dose producing signs of strong cytotoxicity that limited the top dose” value turned out to be 40 µg/cm^2 and the “Dose(s) exceeding the cytotoxicity limit” value was 20 µg/cm^2.

Take Sodium xylene sulfonate: in the data set with rats and mice, the Carcinogenicity entry was “negative for carcinogenicity”. In data set [1], the “Effect on % tail DNA / DNA migration in APC experiment” value is “no significant increases in % tail DNA”, the “Effect on % tail DNA / DNA migration in standard experiment” value is “did not induce an increase in % tail DNA in either cell type” and the “RS Comet assay overall classification” value is on record as “negative”. In the data set with Phenion®FT Skin Models, the “Dose producing signs of strong cytotoxicity that limited the top dose” value came out at 512 µg/cm^2 and the “Dose(s) exceeding the cytotoxicity limit” value is reported as 640 µg/cm^2.

Values taken from paper PMC8081376 (Mutagenesis, 2020).
